Laboratory results from PubChem BioAssay AID1963837 (Molecular Pharmacology Branch, DTP, NCI, 2024).

System: 843126-344-R-J1-PDC complex spheroid viability
Assay: Anticancer human tumor 843126-344-R-J1-PDC patient-derived melanoma cell line growth inhibition [POLQ]
Conditions: for IC50: curve of first compound; for viability, T/C: stronger effect = lower value
In short: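 Patient-derived tumour cells were co-cultured with HUVEC and mesenchymal stem cells as multicellular spheroids at 37 °C. They were treated with POLQ inhibitors (novobiocin, ART-558, RP6685) alone or combined with other agents. Top concentrations were at or near clinical Cmax (otherwise 10 microM; SN-38 at 1 microM), decreasing in half-log steps.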

[1] = second compound 0.0316 µM, first compound 0.0316 µM
[2] = second compound 0.0316 µM, first compound 0.1 µM
[3] = second compound 0.0316 µM, first compound 0.316 µM
[4] = second compound 0.0316 µM, first compound 1 µM
[5] = second compound 0.0316 µM, first compound 3.16 µM
[6] = second compound 0.0316 µM, first compound 10 µM
[7] = second compound 0.1 µM, first compound 0.0316 µM
[8] = second compound 0.1 µM, first compound 0.1 µM
[9] = second compound 0.1 µM, first compound 0.316 µM
[10] = second compound 0.1 µM, first compound 1 µM
[11] = second compound 0.1 µM, first compound 3.16 µM
[12] = second compound 0.1 µM, first compound 10 µM
[13] = second compound 0.316 µM, first compound 0.0316 µM
[14] = second compound 0.316 µM, first compound 0.1 µM
[15] = second compound 0.316 µM, first compound 0.316 µM
[16] = second compound 0.316 µM, first compound 1 µM
[17] = second compound 0.316 µM, first compound 3.16 µM
[18] = second compound 0.316 µM, first compound 10 µM
[19] = second compound 1 µM, first compound 0.0316 µM
[20] = second compound 1 µM, first compound 0.1 µM
[21] = second compound 1 µM, first compound 0.316 µM
[22] = second compound 1 µM, first compound 1 µM
[23] = second compound 1 µM, first compound 3.16 µM
[24] = second compound 1 µM, first compound 10 µM
[25] = second compound 3.16 µM, first compound 0.0316 µM
[26] = second compound 3.16 µM, first compound 0.1 µM
[27] = second compound 3.16 µM, first compound 0.316 µM
[28] = second compound 3.16 µM, first compound 1 µM
[29] = second compound 3.16 µM, first compound 3.16 µM
[30] = second compound 3.16 µM, first compound 10 µM
[31] = second compound 10 µM, first compound 0.0316 µM
[32] = second compound 10 µM, first compound 0.1 µM
[33] = second compound 10 µM, first compound 0.316 µM
[34] = second compound 10 µM, first compound 1 µM
[35] = second compound 10 µM, first compound 3.16 µM
[36] = second compound 10 µM, first compound 10 µM
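Throughout, for viability, T/C: spheroids exposed to drugs for seven days before readout.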

**Q.** What does the source list for CCc1cc2c(N3CCc4c(cc(Cn5ccnc5)cc4-c4cn(C)nc4C(F)(F)F)C3=O)ccnc2c(OC)n1 + COC1C(OC(N)=O)C(O)C(Oc2ccc3c(O)c(NC(=O)c4ccc(O)c(CC=C(C)C)c4)c(=O)oc3c2C)OC1(C)C?
**A.** IC50 (second compound 0.0316 µM): > 10 µM; IC50 (second compound 0.1 µM): 8.32 µM; IC50 (second compound 0.316 µM): > 10 µM; IC50 (second compound 1 µM): > 10 µM; IC50 (second compound 3.16 µM): > 10 µM; IC50 (second compound 10 µM): > 10 µM; viability, T/C [1]: 94.1%; viability, T/C [2]: 88.3%; viability, T/C [3]: 87.3%; viability, T/C [4]: 78.4%; viability, T/C [5]: 62.2%; viability, T/C [6]: 60.8%; viability, T/C [7]: 82%; viability, T/C [8]: 99.8%; viability, T/C [9]: 92.2%; viability, T/C [10]: 70.4%; viability, T/C [11]: 63%; viability, T/C [12]: 46.5%; viability, T/C [13]: 99.5%; viability, T/C [14]: 78%; viability, T/C [15]: 78%; viability, T/C [16]: 73.1%; viability, T/C [17]: 76.6%; viability, T/C [18]: 62%; viability, T/C [19]: 84.5%; viability, T/C [20]: 93.8%; viability, T/C [21]: 78.2%; viability, T/C [22]: 80.6%; viability, T/C [23]: 65%; viability, T/C [24]: 57.2%; viability, T/C [25]: 78.4%; viability, T/C [26]: 99.7%; viability, T/C [27]: 87.2%; viability, T/C [28]: 72.6%; viability, T/C [29]: 67.6%; viability, T/C [30]: 61%; viability, T/C [31]: 80.8%; viability, T/C [32]: 79.7%; viability, T/C [33]: 79.5%; viability, T/C [34]: 78.5%; viability, T/C [35]: 61.7%; viability, T/C [36]: 66.1%

**Q.** Which results are given for CCc1cc2c(N3CCc4c(cc(Cn5ccnc5)cc4-c4cn(C)nc4C(F)(F)F)C3=O)ccnc2c(OC)n1 + Nc1ccc(C#CCN(C(=O)Cc2ncc(C(F)(F)F)cc2C(F)(F)F)c2ccc(F)cc2)nn1?
**A.** IC50 (second compound 0.0316 µM): > 10 µM; IC50 (second compound 0.1 µM): > 10 µM; IC50 (second compound 0.316 µM): > 10 µM; IC50 (second compound 1 µM): > 10 µM; IC50 (second compound 3.16 µM): > 10 µM; IC50 (second compound 10 µM): > 10 µM; viability, T/C [1]: 91.6%; viability, T/C [2]: 90.2%; viability, T/C [3]: 82%; viability, T/C [4]: 86.8%; viability, T/C [5]: 64.7%; viability, T/C [6]: 61.6%; viability, T/C [7]: 107%; viability, T/C [8]: 100%; viability, T/C [9]: 81.5%; viability, T/C [10]: 77.1%; viability, T/C [11]: 88%; viability, T/C [12]: 61.6%; viability, T/C [13]: 101%; viability, T/C [14]: 100%; viability, T/C [15]: 96.6%; viability, T/C [16]: 82.3%; viability, T/C [17]: 72.9%; viability, T/C [18]: 61.5%; viability, T/C [19]: 96.6%; viability, T/C [20]: 99.3%; viability, T/C [21]: 94.4%; viability, T/C [22]: 72.2%; viability, T/C [23]: 88.4%; viability, T/C [24]: 58.2%; viability, T/C [25]: 94.5%; viability, T/C [26]: 90.9%; viability, T/C [27]: 96.7%; viability, T/C [28]: 80.1%; viability, T/C [29]: 82.7%; viability, T/C [30]: 56.8%; viability, T/C [31]: 83%; viability, T/C [32]: 76.6%; viability, T/C [33]: 75.8%; viability, T/C [34]: 73.5%; viability, T/C [35]: 80.2%; viability, T/C [36]: 55.9%

**Q.** How did the IC50 (second compound 0.0316 µM) turn out when O=c1[nH]cc(F)c(=O)[nH]1 + Nc1ccc(C#CCN(C(=O)Cc2ncc(C(F)(F)F)cc2C(F)(F)F)c2ccc(F)cc2)nn1 was run?
**A.** > 10 µM

**Q.** And the IC50 (second compound 0.1 µM)?
**A.** > 10 µM

**Q.** And the IC50 (second compound 0.316 µM)?
**A.** > 10 µM

**Q.** And the IC50 (second compound 1 µM)?
**A.** > 10 µM

**Q.** What about the IC50 (second compound 3.16 µM) of the same molecule?
**A.** > 10 µM

**Q.** What about the IC50 (second compound 10 µM) of the same molecule?
**A.** > 10 µM

**Q.** And the viability, T/C [1]?
**A.** 101%

**Q.** And the viability, T/C [2]?
**A.** 94.7%

**Q.** What about the viability, T/C [3] of the same molecule?
**A.** 92.9%

**Q.** What about the viability, T/C [4] of the same molecule?
**A.** 92.9%

**Q.** What about the viability, T/C [5] of the same molecule?
**A.** 95.4%

**Q.** What about the viability, T/C [6] of the same molecule?
**A.** 85.5%

**Q.** What about the viability, T/C [7] of the same molecule?
**A.** 103%

**Q.** What about the viability, T/C [8] of the same molecule?
**A.** 110%

**Q.** And the viability, T/C [9]?
**A.** 103%

**Q.** What about the viability, T/C [10] of the same molecule?
**A.** 89%

**Q.** What about the viability, T/C [11] of the same molecule?
**A.** 82.4%

**Q.** And the viability, T/C [12]?
**A.** 93.4%

**Q.** What about the viability, T/C [13] of the same molecule?
**A.** 92.4%

**Q.** And the viability, T/C [14]?
**A.** 109%

**Q.** What about the viability, T/C [15] of the same molecule?
**A.** 101%

**Q.** What about the viability, T/C [16] of the same molecule?
**A.** 101%

**Q.** What about the viability, T/C [17] of the same molecule?
**A.** 111%

**Q.** And the viability, T/C [18]?
**A.** 92.6%

**Q.** And the viability, T/C [19]?
**A.** 110%

**Q.** And the viability, T/C [20]?
**A.** 107%

**Q.** And the viability, T/C [21]?
**A.** 108%

**Q.** And the viability, T/C [22]?
**A.** 89.5%

**Q.** What about the viability, T/C [23] of the same molecule?
**A.** 94.3%

**Q.** And the viability, T/C [24]?
**A.** 90.6%

**Q.** What about the viability, T/C [25] of the same molecule?
**A.** 107%

**Q.** What about the viability, T/C [26] of the same molecule?
**A.** 87.3%

**Q.** What about the viability, T/C [27] of the same molecule?
**A.** 82.8%

**Q.** And the viability, T/C [28]?
**A.** 82.3%

**Q.** And the viability, T/C [29]?
**A.** 80%

**Q.** What about the viability, T/C [30] of the same molecule?
**A.** 82.4%

**Q.** And the viability, T/C [31]?
**A.** 81.9%

**Q.** And the viability, T/C [32]?
**A.** 86.2%

**Q.** And the viability, T/C [33]?
**A.** 84.6%

**Q.** And the viability, T/C [34]?
**A.** 81.9%

**Q.** What about the viability, T/C [35] of the same molecule?
**A.** 88%

**Q.** And the viability, T/C [36]?
**A.** 76.7%
